From patent US20080261994A1, “CYCLOPROPANE COMPOUNDS AND PHARMACEUTICAL USE THEREOF” (Japan Tobacco Inc., priority 2003, published 2008)
Like-named read-outs stand apart in the source and are kept apart here.

Columns and labels:
Format in all cases: biochemical
MMP-1 = target: T1, MMP-1 (Homo sapiens, UniProt P03956); test: MMP-1 inhibitory action (Type I collagen Activity Measurement kit, FITC-labeled collagen type I)
T1 sequence (P03956 100-469): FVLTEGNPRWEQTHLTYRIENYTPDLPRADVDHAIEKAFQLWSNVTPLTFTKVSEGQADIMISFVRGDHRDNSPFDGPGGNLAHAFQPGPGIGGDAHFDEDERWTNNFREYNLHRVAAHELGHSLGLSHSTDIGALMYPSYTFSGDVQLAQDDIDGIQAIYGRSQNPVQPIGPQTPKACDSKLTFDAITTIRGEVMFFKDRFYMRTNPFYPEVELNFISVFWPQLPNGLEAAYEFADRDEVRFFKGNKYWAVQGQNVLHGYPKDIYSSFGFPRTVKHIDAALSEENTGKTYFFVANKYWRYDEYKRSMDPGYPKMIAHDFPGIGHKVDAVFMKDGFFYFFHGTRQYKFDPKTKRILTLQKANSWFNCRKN

aggrecanase-1 = target: T2, aggrecanase-1 (Homo sapiens, UniProt O75173); test: Aggrecanase-1 inhibitory action (Particle Assay, GAG release from aggrecan-containing polyacrylamide particles)
T2 sequence (O75173 213-837): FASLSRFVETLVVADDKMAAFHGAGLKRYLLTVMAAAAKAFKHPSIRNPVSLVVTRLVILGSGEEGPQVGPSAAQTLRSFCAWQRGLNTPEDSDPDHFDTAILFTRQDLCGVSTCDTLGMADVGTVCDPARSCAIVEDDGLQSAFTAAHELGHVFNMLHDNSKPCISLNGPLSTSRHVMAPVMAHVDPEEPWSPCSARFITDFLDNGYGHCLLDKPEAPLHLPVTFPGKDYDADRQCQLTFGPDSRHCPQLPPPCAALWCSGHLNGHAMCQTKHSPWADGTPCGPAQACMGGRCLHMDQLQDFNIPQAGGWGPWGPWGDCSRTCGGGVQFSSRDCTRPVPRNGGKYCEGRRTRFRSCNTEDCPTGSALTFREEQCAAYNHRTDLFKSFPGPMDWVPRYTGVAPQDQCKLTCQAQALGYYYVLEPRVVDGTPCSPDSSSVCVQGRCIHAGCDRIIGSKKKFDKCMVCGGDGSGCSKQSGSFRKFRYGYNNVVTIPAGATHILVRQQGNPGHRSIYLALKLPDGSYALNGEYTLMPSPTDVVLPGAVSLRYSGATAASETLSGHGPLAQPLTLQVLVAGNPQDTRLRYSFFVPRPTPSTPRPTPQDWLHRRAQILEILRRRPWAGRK
In short: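 Readout was dimethylmethylene blue absorbance (595 nm) of glycosaminoglycan liberated into supernatant, calibrated with whale chondroitin sulfate. Substrate was aggrecan in polyacrylamide particles, digested 15 h at 37° C in Tris-HCl; TC50 (μM) derived from inhibition relative to no-enzyme and no-inhibitor controls.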

Recombinant Human MMP-13 = target: T3, Recombinant Human MMP-13 (Homo sapiens, UniProt P45452); test: MMP-13 inhibitory activity (MMP-13 specific fluorescent substrate with quencher)
T3 construct: purchased R&D systems 511-MM
In short: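 IC50 (μM) derived from % inhibition, normalised to wells without enzyme and without inhibitor, fluorescence read at 325/405 nm. Enzyme and compound preceded addition of the quenched 7-MCA…DPA substrate; Tris-HCl buffer, 25 °C for 1 h, acetic-acid stop.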

[1] = Experimental Example 2, read-out: IC50 MMP1
[2] = Experimental Example 1, read-out: IC50 AG1
[3] = Experimental Example 3, read-out: IC50 MMP13
[4] = MMP-1 inhibitory action, FITC-labeled collagen type I, 37° C. for 3 hr, read-out: IC50 MMP1 (Experimental Example 2)
[5] = aggrecanase-1 inhibitory action, read-out: IC50 AG1 (Experimental Example 1)
[6] = Recombinant Human MMP-13, fluorescent substrate, 25° C. for 1 h, read-out: IC50 MMP13 (Experimental Example 3)

| IC50 (MMP-1; [1]) [nM] | IC50 (aggrecanase-1; [2]) [nM] | IC50 (Recombinant Human MMP-13; [3]) [nM] | IC50 (MMP-1; [4]) [nM] | IC50 (aggrecanase-1; [5]) [nM] | IC50 (Recombinant Human MMP-13; [6]) [nM] | Structure (SMILES) |
| --- | --- | --- | --- | --- | --- | --- |
| < 1000 | < 100 | < 1000 | – | – | – | C[C@]1(c2ccccc2)C[C@@]1(NS(=O)(=O)c1ccc(-c2cc(C(F)F)no2)s1)C(=O)O [Example 2-422] |
| – | – | – | ≥ 10000 | < 1000 | < 1000 | CN1CCN(C(=O)c2ccccc2C2CC2(NS(=O)(=O)c2ccc(-c3ccc(Cl)cc3)s2)C(=O)O)CC1 (stereo not drawn) [Example 2-216] |
| ≥ 1000 | < 100 | < 1000 | – | – | – | COCCCC1(c2ccccc2)CC1(NS(=O)(=O)c1ccc(-c2ccc(Cl)cc2)s1)C(=O)O (stereo not drawn) [Example 2-559] |
| ≥ 10000 | ≥ 1000 | ≥ 1000 | – | – | – | NCC1(c2ccccc2)CC1(NS(=O)(=O)c1ccc(-c2ccc(Cl)cc2)s1)C(=O)O (stereo not drawn) [Example 2-361] |
| – | – | – | < 1000 | < 100 | < 100 | C[C@]1(c2ccccc2)C[C@@]1(NS(=O)(=O)c1ccc(-c2ccc(Cl)c(N)c2)s1)C(=O)O [Example 2-12, (1S,2R)-1-[5-(3-amino-4-chloro-phenyl)-thiophene-2-sulfonylamino]-2-methyl-2-phenyl-cyclopropanecarboxylic acid] |
| – | – | – | ≥ 1000 | < 1000 | < 100 | O=C(O)[C@]1(NS(=O)(=O)c2ccc(-c3ccc(Cl)cc3)s2)C[C@@H]1c1cccc(Br)c1 [Example 2-136] |
| ≥ 1000 | < 1000 | < 1000 | – | – | – | CN(C)C(=O)OCC1(c2ccccc2)CC1(NS(=O)(=O)c1ccc(-c2cc(C(F)(F)F)on2)s1)C(=O)O (stereo not drawn) [Example 2-320] |
| – | – | – | ≥ 1000 | < 100 | < 100 | O=C(O)C1(NS(=O)(=O)c2ccc(-c3ccc(Cl)cc3)s2)CC1c1cccc(OCc2ccccn2)c1 (stereo not drawn) [Example 1-108] |
| – | – | – | ≥ 1000 | < 100 | < 100 | O=C(O)[C@]1(NS(=O)(=O)c2ccc(-c3ccc(Cl)cc3)s2)C[C@@H]1c1cccc(NCc2cccnc2)c1 [Example 2-173] |
| – | – | – | ≥ 10000 | < 1000 | < 1000 | CN(C)CCC(=O)Nc1cccc(C2CC2(NS(=O)(=O)c2ccc(-c3ccc(Cl)cc3)s2)C(=O)O)c1 (stereo not drawn) [Example 2-223] |
| – | – | – | ≥ 1000 | < 100 | < 100 | O=C(O)C1(NS(=O)(=O)c2ccc(-c3ccc(Cl)cc3)s2)CC1c1cccc(OCc2cccnc2)c1 (stereo not drawn) [Example 1-107] |
| ≥ 1000 | < 1000 | ≥ 1000 | – | – | – | NCCCC1(c2ccccc2)CC1(NS(=O)(=O)c1ccc(-c2ccc(Cl)cc2)s1)C(=O)O (stereo not drawn) [Example 2-285] |
| – | – | – | ≥ 1000 | < 100 | < 1000 | O=C(O)C1(NS(=O)(=O)c2ccc(-c3ccc(Cl)cc3)s2)CC1(CCO)c1ccccc1 (stereo not drawn) [Example 2-263] |
| ≥ 1000 | < 1000 | < 1000 | – | – | – | C[C@]1(c2ccccc2)C[C@@]1(NS(=O)(=O)c1ccc(-c2ccc(CO)c(F)c2)s1)C(=O)O [Example 2-594] |
| ≥ 10000 | ≥ 1000 | ≥ 1000 | – | – | – | O=C(c1ccc(Cl)cc1)c1ccc(S(=O)(=O)N[C@@]2(C(=O)O)C[C@@H]2c2ccccc2)s1 [Example 2-307] |

Second part, the compound before the results:

| Structure (SMILES) | IC50 (MMP-1; [1]) [nM] | IC50 (aggrecanase-1; [2]) [nM] | IC50 (Recombinant Human MMP-13; [3]) [nM] | IC50 (MMP-1; [4]) [nM] | IC50 (aggrecanase-1; [5]) [nM] | IC50 (Recombinant Human MMP-13; [6]) [nM] |
| --- | --- | --- | --- | --- | --- | --- |
| C[C@]1(c2cccc(Cl)c2)C[C@@]1(NS(=O)(=O)c1ccc(-c2cc(C(F)(F)F)on2)s1)C(=O)O [Example 2-619] | < 1000 | < 100 | < 1000 | – | – | – |
| O=C(O)C1(NS(=O)(=O)c2ccc(-c3ccc(Cl)cc3)cc2)CC1c1cccc(Oc2cccnc2)c1 (stereo not drawn) [Example 1-68] | – | – | – | ≥ 1000 | < 1000 | < 100 |
| O=C(O)C1(NS(=O)(=O)c2ccc(-c3ccc(Cl)cc3)cc2)CC1c1cccc(OCCN2CCOCC2)c1 (stereo not drawn) [Example 1-74] | – | – | – | ≥ 1000 | < 1000 | < 100 |
| O=C(O)C1(NS(=O)(=O)N2CCC(Oc3ccccc3)CC2)CC1c1ccccc1 (stereo not drawn) [Example 2-143] | – | – | – | ≥ 10000 | ≥ 10000 | ≥ 1000 |
| Cc1nc(-c2ccc(S(=O)(=O)N[C@@]3(C(=O)O)C[C@@H]3c3ccccc3)s2)no1 [Example 2-51] | – | – | – | ≥ 10000 | ≥ 1000 | ≥ 1000 |
| O=C(O)[C@]1(NS(=O)(=O)c2ccc(-n3cc(Br)cn3)s2)C[C@@H]1c1ccccc1 [Example 2-605] | ≥ 10000 | ≥ 1000 | ≥ 1000 | – | – | – |
| CC1(C)C(c2ccccc2)C1(NS(=O)(=O)c1ccc(-c2cc(C(F)(F)F)on2)s1)C(=O)O (stereo not drawn) [Example 2-275] | ≥ 1000 | < 100 | < 1000 | – | – | – |
| O=C(O)C1(NS(=O)(=O)c2ccc(-c3ccc(Cl)cc3)cc2)CC1c1cccc(OCCn2cccn2)c1 (stereo not drawn) [Example 1-75] | – | – | – | ≥ 1000 | < 1000 | < 100 |
| O=C(c1cccc(C2CC2(NS(=O)(=O)c2ccc(-c3cc(C(F)(F)F)on3)s2)C(=O)O)c1)N1CCOCC1 (stereo not drawn) [Example 2-258] | – | – | – | ≥ 1000 | < 1000 | < 1000 |
| CC1[C@H](c2ccccc2)[C@]1(NS(=O)(=O)c1ccc(-n2cc(C#N)cn2)s1)C(=O)O (stereo partly drawn) [Example 2-580] | ≥ 1000 | < 1000 | < 100 | – | – | – |
| CC1[C@H](c2ccccc2)[C@]1(NS(=O)(=O)N1CCCN(c2ccc(Cl)cn2)CC1)C(=O)O (stereo partly drawn) [Example 2-461] | ≥ 10000 | < 1000 | ≥ 1000 | – | – | – |
| CC1[C@H](c2ccccc2)[C@]1(NS(=O)(=O)N1CCCN(c2ccc(F)cn2)CC1)C(=O)O (stereo partly drawn) [Example 2-462] | ≥ 1000 | < 1000 | ≥ 1000 | – | – | – |
| O=C(O)[C@]1(NS(=O)(=O)c2ccc(-c3cc(C(F)(F)F)on3)s2)C[C@@H]1c1ccccc1Br [Example 2-193] | – | – | – | ≥ 10000 | < 1000 | < 1000 |
| CC1[C@H](c2ccccc2)[C@]1(NS(=O)(=O)c1ccc(-c2cc(C#N)on2)s1)C(=O)O (stereo partly drawn) [Example 2-579] | < 1000 | < 100 | < 100 | – | – | – |
| O=C(CCc1ccccc1C1CC1(NS(=O)(=O)c1ccc(-c2cc(C(F)(F)F)on2)s1)C(=O)O)N1CCOCC1 (stereo not drawn) [Example 2-230] | – | – | – | ≥ 10000 | < 1000 | < 100 |
| COc1ccccc1C1(C)CC1(NS(=O)(=O)c1ccc(-c2cc(C(F)(F)F)on2)s1)C(=O)O (stereo not drawn) [Example 2-613] | < 1000 | < 100 | ≥ 1000 | – | – | – |
| Cc1cc(C2CC2(NS(=O)(=O)c2ccc(-c3cc(C(F)(F)F)on3)s2)C(=O)O)no1 (stereo not drawn) [Example 2-314] | ≥ 10000 | ≥ 1000 | ≥ 10000 | – | – | – |
| O=C(NC1CCCC1)c1ccc(S(=O)(=O)NC2(C(=O)O)CC2c2ccccc2)s1 (stereo not drawn) [Example 2-95] | – | – | – | ≥ 10000 | ≥ 10000 | ≥ 10000 |
| O=C(CCc1cccc(C2CC2(NS(=O)(=O)c2ccc(-c3ccc(Cl)cc3)s2)C(=O)O)c1)N1CCOCC1 (stereo not drawn) [Example 2-209] | – | – | – | ≥ 1000 | < 100 | < 100 |
| O=C(O)C1(NS(=O)(=O)c2ccc(-c3cc(C(F)(F)F)on3)s2)CC1c1cccc(CCCO)c1 (stereo not drawn) [Example 2-236] | – | – | – | ≥ 1000 | < 1000 | < 100 |
| Nc1ccc(S(=O)(=O)NC2(C(=O)O)CC2c2ccccc2)s1 (stereo not drawn) [Example 2-165] | – | – | – | ≥ 10000 | ≥ 10000 | ≥ 1000 |
| O=C(O)C1(NS(=O)(=O)c2ccc(-c3cc(C(F)(F)F)on3)s2)CC1c1ccccc1 (stereo not drawn) [Example 1-121] | – | – | – | ≥ 1000 | < 100 | < 100 |
| NCc1ccc([C@@H]2C[C@]2(NS(=O)(=O)c2ccc(-c3cc(C(F)(F)F)on3)s2)C(=O)O)cc1 [Example 2-289] | ≥ 1000 | < 1000 | < 1000 | – | – | – |
| CC1[C@@H](c2ccccc2)[C@@]1(NS(=O)(=O)c1ccc(-c2cc(C(F)(F)F)on2)s1)C(=O)O (stereo partly drawn) [Example 2-288] | < 1000 | < 100 | < 100 | – | – | – |
